# Test results: patent US9676997B2, “Compositions and methods for stabilizing luminogenic substrates” (Promega Corporation, priority 2014, dated 2017)
# Like-named read-outs stand apart in the source and are kept apart here.
# Test: Stability of 1.25 mM coelenterazine-h in 50% ethanol and 50% propylene glycol with or without 225 mM ATT, HPLC and Arrhenius plots
# Assay type: physicochemical
# Experimental: The stability of coelenterazine-h in the presence and absence of ATT was measured over time at different temperatures. Specifically, 1.25 mM coelenterazine-h was present in a solution of 50% ethanol and 50% propylene glycol (i.e., the solution without ATT) or a solution of 50% ethanol and 50% propylene glycol with 225 mM ATT (i.e., the solution with ATT). These two solutions were incubated at −20° C., room temperature (RT), 40° C., or 60° C. and analyzed at for 0 days, 1 day, 3 days, 7 days, 15 days, and 30 days.
# Following incubation, high performance liquid chromatography (HPLC) was utilized to identify the components of the respective solutions at each time point. Specifically, an Agilent 1100 HPLC instrument was used and equipped with a quaternary pump, thermostatted autosampler and column compartment, and a G1311B diode-array detector. The column used was a Synergi-MAX-RP (Phenomenex, Torrance, Calif.) 100 AÅ 50×4.6 2.5 μm. The run on the HPLC was a gradient run with 0.1% TFA in water and acetonitrile. Absorbance was measured at 262 nanometers (nm). Standards of coelenterazine-h and its known degradants were run to confirm both the retention time and absorbance trace. 5 μl of each solution was injected and the retention time of coelenterazine-h was 4.7 minutes at room temperature.
# The results of the HPLC analysis are shown below in Tables 4 and 5 and FIGS. 2A and 2B, in which the values are reported as relative peak area percentage at 262 nm (i.e., the lamba max of the substrate). […] In each of FIGS. 2A and 2B, diamond is 1.25 mM coelenterazine-h incubated over time with or without 225 mM ATT, respectively, at −20° C., triangle is 1.25 mM coelenterazine-h incubated over time with or without 225 mM ATT, respectively, at room temperature (RT), star is 1.25 mM coelenterazine-h incubated over time with or without 225 mM ATT, respectively, at 40° C., and cross is 1.25 mM coelenterazine-h incubated over time with or without 225 mM ATT, respectively, at 60° C.
# From the HPLC analysis, the half-life of coelenterazine-h in the presence of ATT at 40° C. and 60° C. was calculated to be 20 days and 5 days, respectively, while the half-life of coelenterazine-h in the absence of ATT at 20° C., 40° C. and 60° C. was calculated to be 24 days, 7.5 days and 2 days, respectively (see Table 6 below).
# Additionally, Arrhenius plots were generated for coelenterazine-h in the presence and absence of ATT to calculate the half-life of coelenterazine-h at various temperatures. The Arrhenius equation is as follows: […]
# In FIG. 9, the slope was −8131.2, the intercept was 22.6157, and R^2 was 0.9994.
# In FIG. 10, the slope was −7310.53, the intercept was 21.4386, and R^2 was 0.9964.
# [1] = decomposition of coelenterazine-h
compound,measurement,setting,value
"O=c1c(Cc2ccccc2)nc2c(Cc3ccccc3)[nH]c(-c3ccc(O)cc3)cn1-2 [Coelenterazine-h (15-957-39), coelenterazine-h]",relative peak area percentage at 262 nm,"40° C., 0 days",95.5%
same,relative peak area percentage at 262 nm,"40° C., 1 day",84.3%
same,relative peak area percentage at 262 nm,"40° C., 3 days",71.5%
same,relative peak area percentage at 262 nm,"40° C., 7 days",54.2%
same,relative peak area percentage at 262 nm,"40° C., 15 days",26.7%
same,relative peak area percentage at 262 nm,"40° C., 30 days",1.6%
same,relative peak area percentage at 262 nm,"60° C., 0 days",95.5%
same,relative peak area percentage at 262 nm,"60° C., 1 day",63.6%
same,relative peak area percentage at 262 nm,"60° C., 3 days",32.3%
same,relative peak area percentage at 262 nm,"60° C., 7 days",1.2%
same,relative peak area percentage at 262 nm,"RT, 0 days",95.5%
same,relative peak area percentage at 262 nm,"RT, 1 day",92.9%
same,relative peak area percentage at 262 nm,"RT, 3 days",88.1%
same,relative peak area percentage at 262 nm,"RT, 7 days",80.7%
same,relative peak area percentage at 262 nm,"RT, 15 days",66.7%
same,relative peak area percentage at 262 nm,"RT, 30 days",36.6%
same,Arrhenius plot intercept,[1],21.4386
same,Arrhenius plot slope,[1],−7310.53
same,half-life at 1.25 mM,"solution in 50% ethanol and 50% propylene glycol, 40° C., read-out: T1/2 Calculated from Arrhenius (converted)",113 h
same,half-life at 1.25 mM,"solution of 50% ethanol and 50% propylene glycol, 20° C., read-out: T1/2 Calculated from Arrhenius (converted)",557 h
same,half-life at 1.25 mM,"solution of 50% ethanol and 50% propylene glycol, 20° C., read-out: T1/2 Estimated from graph (converted)",576 h
same,half-life at 1.25 mM,"solution of 50% ethanol and 50% propylene glycol, 40° C., read-out: T1/2 Estimated from graph (converted)",180 h
same,half-life at 1.25 mM,"solution of 50% ethanol and 50% propylene glycol, 60° C., read-out: T1/2 Calculated from Arrhenius (converted)",28.8 h
same,half-life at 1.25 mM,"solution of 50% ethanol and 50% propylene glycol, 60° C., read-out: T1/2 Estimated from graph (converted)",48 h
same,half-life at 1.25 mM,"solution of 50% ethanol and 50% propylene glycol, −20° C., read-out: T1/2 Calculated from Arrhenius (converted)",28900 h
same,relative peak area percentage at 262 nm,"−20° C., 0 days",95.5%
same,relative peak area percentage at 262 nm,"−20° C., 1 day",95.4%
same,relative peak area percentage at 262 nm,"−20° C., 3 days",95.0%
same,relative peak area percentage at 262 nm,"−20° C., 7 days",95.0%
same,relative peak area percentage at 262 nm,"−20° C., 15 days",94.6%
same,relative peak area percentage at 262 nm,"−20° C., 30 days",88.8%
